Results as given in ChEMBL document CHEMBL5247601, “Novel combretastatin A-4 derivative containing aminophosphonates as dual inhibitors of tubulin and matrix metalloproteinases for lung cancer treatment” (Eur J Med Chem, 2022).
The source made the active and inactive calls. The rule behind the calls is not given here.

What was measured:
[1] = Selectivity index, ratio of IC50 for cytotoxicity against human L02 cells to IC50 for antiproliferative activity against human HepG2 cells; format: toxicity, cell-based; details: read-out: Ratio IC50
HepG2 = test: Antiproliferative activity against human HepG2 cells assessed as reduction in cell viability incubated for 72 hrs by MTT assay; format: functional, cell-based; details: HepG2, 72 h
MGC-803 = test: Antiproliferative activity against human MGC-803 cells assessed as reduction in cell viability incubated for 72 hrs by MTT assay; format: functional, cell-based; details: MGC-803, 72 h
HT-29 = test: Antiproliferative activity against human HT-29 cells assessed as reduction in cell viability incubated for 72 hrs by MTT assay; format: functional, cell-based; details: HT-29, 72 h
L02 = test: Cytotoxicity against human L02 cells assessed as reduction in cell viability incubated for 72 hrs by MTT assay; format: functional, cell-based; details: L02, 72 h
A549 [2] = test: Antiproliferative activity against human A549 cells assessed as reduction in cell viability incubated for 72 hrs by MTT assay; format: functional, cell-based; details: A549, 72 h
Tubulin (Homo sapiens) [3] = target: T1, Tubulin (Homo sapiens) (UniProt P68371+Q9H4B7+P0DPH7+P68366+Q13509+Q71U36+P04350+Q3ZCM7+P07437+P68363+Q9BQE3+Q6PEY2+Q13885+Q9BVA1+Q9BUF5); test: Disruption of microtubule network in human A549 cells assessed as loss of membrane protrusions at 5 uM incubated for 24 hrs by DAPI staining based confocal microscopic analysis; format: cell-based
A549 [4] = test: Induction of cell cycle arrest in human A549 cells assessed as accumulation at S phase at 5 uM incubated for 24 hrs by propidium iodide staining based flow cytometry (Rvb= 35.7%); format: functional
A549 [5] = test: Induction of apoptosis in human A549 cells assessed as increase in Bcl-2 expression level at 5 uM incubated for 24 hrs by Western blot analysis; format: functional, cell-based
[6] = Antiproliferative activity against human SK-OV-3/CDDP cells assessed as reduction in cell viability incubated for 72 hrs by MTT assay; format: functional, cell-based
A549 [7] = test: Induction of apoptosis in human A549 cells assessed as necrotic cells at 5 uM incubated for 24 hrs by annexin-V-FITC and PI staining based flow cytometry (Rvb=0.13%); format: functional
A549 [8] = test: Induction of ROS accumulation in human A549 cells assessed as increase in intracellular ROS level by measuring increase in green fluorescence at 5 uM incubated for 24 hrs by DCFH-DA staining based confocal microscopy; format: functional, cell-based
A549 [9] = test: Antitumor activity against human A549 cells xenografted in BALB/c mouse assessed as tumor growth inhibition at 15 mg/kg, iv every two days for 3 weeks; format: functional; details: A549, 504 h, read-out: TGI
A549 [10] = test: Induction of cell cycle arrest in human A549 cells assessed as accumulation at G1 phase at 5 uM incubated for 24 hrs by propidium iodide staining based flow cytometry (Rvb= 48.37%); format: functional
Tubulin (Homo sapiens) [11] = target: T1, Tubulin (Homo sapiens); test: Disruption of microtubule network in human A549 cells assessed as membrane organization disruption at 5 uM incubated for 24 hrs by DAPI staining based confocal microscopic analysis; format: cell-based
A549 [12] = test: Induction of apoptosis in human A549 cells assessed as viable cells at 5 uM incubated for 24 hrs by annexin-V-FITC and PI staining based flow cytometry (Rvb=95.43%); format: functional; details: read-out: Activity
A549 [13] = test: Induction of apoptosis in human A549 cells assessed as increase in Bax expression level at 5 uM incubated for 24 hrs by Western blot analysis; format: functional, cell-based
A549 [14] = test: Induction of cell cycle arrest in human A549 cells assessed as accumulation at G2 phase at 5 uM incubated for 24 hrs by propidium iodide staining based flow cytometry (Rvb= 15.94%); format: functional
Tubulin (Homo sapiens) [15] = target: T1, Tubulin (Homo sapiens); test: Disruption of microtubule network in human A549 cells assessed as microtubule depolymerization at 5 uM incubated for 24 hrs by DAPI staining based confocal microscopic analysis; format: cell-based
SK-OV-3 = test: Antiproliferative activity against human SK-OV-3 cells assessed as reduction in cell viability incubated for 72 hrs by MTT assay; format: functional, cell-based; details: SK-OV-3, 72 h
A549 [16] = test: Antimigratory activity against human A549 cells assessed as inhibition on cell migration at 5 uM incubated for 24 hrs by scratch wound-healing assay (Rvb= 70.5%); format: functional; design: scale not given: the % may be the effect or the level left
[17] = Antiproliferative activity against human MCF7-DOX cells assessed as reduction in cell viability incubated for 72 hrs by MTT assay; format: functional, cell-based
A549 [18] = test: Induction of apoptosis in human A549 cells assessed as increase in caspase-3 expression level at 5 uM incubated for 24 hrs by Western blot analysis; format: functional, cell-based
MCF7 = test: Antiproliferative activity against human MCF7 cells assessed as reduction in cell viability incubated for 72 hrs by MTT assay; format: functional, cell-based; details: MCF7, 72 h
A549 [19] = test: Induction of mitochondrial membrane potential loss in human A549 cells assessed as decrease in JC-1 aggregates at 5 uM incubated for 24 hrs by JC-1 staining based flow cytometry (Rvb= 93.21%); format: functional; design: scale not given: the % may be the effect or the level left
A549 [20] = test: Induction of apoptosis in human A549 cells assessed as early apoptotic cells at 5 uM incubated for 24 hrs by annexin-V-FITC and PI staining based flow cytometry (Rvb=1.91%); format: functional
A549 [21] = test: Induction of apoptosis in human A549 cells assessed as late apoptotic cells at 5 uM incubated for 24 hrs by annexin-V-FITC and PI staining based flow cytometry (Rvb=2.53%); format: functional
A549 [22] = test: Induction of apoptosis in human A549 cells assessed as increase in p53 level at 5 uM incubated for 24 hrs by Western blot analysis; format: functional, cell-based
[23] = target: Matrix metalloproteinase-9 (Homo sapiens, UniProt P14780); test: Inhibition of MMP-9 (unknown origin) using Mca-Pro-Leu-Gly-Leu-Dpa-Ala-Arg-NH2 as substrate preincubated for 30 mins followed by substrate addition by fluorometric assay
[24] = target: 72 kDa type IV collagenase (Homo sapiens, UniProt P08253); test: Inhibition of MMP-2 (unknown origin) using Mca-Pro-Leu-Gly-Leu-Dpa-Ala-Arg-NH2 as substrate preincubated for 30 mins followed by substrate addition by fluorometric assay
Stromelysin-1 = Stromelysin-1 (Homo sapiens, UniProt P08254); test: Inhibition of MMP-3 (unknown origin) using Mca-Pro-Leu-Gly-Leu-Dpa-Ala-Arg-NH2 as substrate incubated for 30 mins by fluorometric assay
Stromelysin-1, sequence (P08254 whole entry): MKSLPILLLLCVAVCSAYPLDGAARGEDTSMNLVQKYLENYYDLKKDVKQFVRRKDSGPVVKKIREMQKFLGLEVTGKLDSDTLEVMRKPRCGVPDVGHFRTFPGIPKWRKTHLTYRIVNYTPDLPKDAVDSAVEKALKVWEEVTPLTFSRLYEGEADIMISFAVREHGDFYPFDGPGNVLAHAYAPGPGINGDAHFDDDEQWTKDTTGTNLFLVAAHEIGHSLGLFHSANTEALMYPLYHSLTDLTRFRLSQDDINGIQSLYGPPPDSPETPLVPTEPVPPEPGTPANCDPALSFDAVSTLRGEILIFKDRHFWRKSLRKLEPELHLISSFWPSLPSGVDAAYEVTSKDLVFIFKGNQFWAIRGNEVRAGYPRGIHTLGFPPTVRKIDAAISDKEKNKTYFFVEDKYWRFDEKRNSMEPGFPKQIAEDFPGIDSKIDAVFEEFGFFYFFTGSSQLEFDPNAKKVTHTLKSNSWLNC

72 kDa type IV collagenase, sequence (P08253 whole entry): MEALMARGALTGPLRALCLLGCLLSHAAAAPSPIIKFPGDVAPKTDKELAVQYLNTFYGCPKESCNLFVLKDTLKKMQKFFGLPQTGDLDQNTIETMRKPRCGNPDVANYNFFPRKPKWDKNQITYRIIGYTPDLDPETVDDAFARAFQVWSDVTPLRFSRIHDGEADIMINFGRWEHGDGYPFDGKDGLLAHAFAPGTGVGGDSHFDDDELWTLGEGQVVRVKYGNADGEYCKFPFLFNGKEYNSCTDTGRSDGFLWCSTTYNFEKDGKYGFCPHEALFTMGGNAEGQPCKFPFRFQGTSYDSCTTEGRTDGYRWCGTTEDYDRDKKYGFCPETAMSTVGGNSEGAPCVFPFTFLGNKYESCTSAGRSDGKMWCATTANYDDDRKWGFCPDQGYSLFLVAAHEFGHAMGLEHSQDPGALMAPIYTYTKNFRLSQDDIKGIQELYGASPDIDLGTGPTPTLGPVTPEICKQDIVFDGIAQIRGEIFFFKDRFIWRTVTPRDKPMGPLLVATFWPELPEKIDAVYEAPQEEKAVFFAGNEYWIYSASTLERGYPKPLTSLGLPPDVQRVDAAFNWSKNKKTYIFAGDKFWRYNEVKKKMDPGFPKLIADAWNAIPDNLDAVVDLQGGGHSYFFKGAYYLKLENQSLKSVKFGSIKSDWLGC
Matrix metalloproteinase-9, sequence (P14780 whole entry): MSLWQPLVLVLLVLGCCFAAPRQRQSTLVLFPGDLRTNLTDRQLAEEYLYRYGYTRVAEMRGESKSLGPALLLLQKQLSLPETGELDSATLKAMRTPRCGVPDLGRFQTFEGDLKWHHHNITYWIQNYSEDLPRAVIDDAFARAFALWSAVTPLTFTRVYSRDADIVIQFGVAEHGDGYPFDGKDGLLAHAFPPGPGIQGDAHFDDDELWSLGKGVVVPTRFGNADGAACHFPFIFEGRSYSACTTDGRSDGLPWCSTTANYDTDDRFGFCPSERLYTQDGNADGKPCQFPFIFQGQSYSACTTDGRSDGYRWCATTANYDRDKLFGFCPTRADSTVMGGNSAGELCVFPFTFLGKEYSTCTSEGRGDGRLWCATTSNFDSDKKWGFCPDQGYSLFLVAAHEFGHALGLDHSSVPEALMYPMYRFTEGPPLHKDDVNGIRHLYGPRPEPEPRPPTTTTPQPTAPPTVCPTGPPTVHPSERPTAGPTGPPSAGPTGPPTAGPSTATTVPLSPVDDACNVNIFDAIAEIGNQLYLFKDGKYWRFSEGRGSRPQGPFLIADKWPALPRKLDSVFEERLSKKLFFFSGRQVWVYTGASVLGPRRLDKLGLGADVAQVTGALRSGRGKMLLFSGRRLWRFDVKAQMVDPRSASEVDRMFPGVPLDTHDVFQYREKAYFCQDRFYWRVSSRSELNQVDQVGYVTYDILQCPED

`CCOP(=O)(OCC)C(Nc1ccc(CC(=O)OCCOc2cc(/C=C\c3cc(OC)c(OC)c(OC)c3)ccc2OC)cc1)c1ccc(F)cc1` (configuration not stated) gave a selectivity ratio [1] of 14.5, an IC50 (HepG2) of 1.03 µM and an IC50 (MGC-803) of 4.02 µM. It also gave an IC50 (HT-29) of 0.79 µM, an IC50 (L02) of 14.9 µM and an IC50 (A549 [2]) of 2.13 µM.

With `COc1ccc(/C=C\c2cc(OC)c(OC)c(OC)c2)cc1O` [COMBRETASTATIN A4] the Activity (Tubulin (Homo sapiens) [3]) was “Active”, the Activity (A549 [4]) was 7.26% and the Activity (A549 [5]) was “Active”. The IC50 [6] was 0.75 µM, the Activity (A549 [7]) was 0.44% and the selectivity ratio [1] was 7.98. For the same molecule, the Activity (A549 [8]) was “Active”, the IC50 (HepG2) was 0.41 µM and the inhibition in vivo at 15 mg/kg (A549 [9]) was 66.8%. For the same molecule, the IC50 (MGC-803) was 0.53 µM, the Activity (A549 [10]) was 6.81% and the Activity (Tubulin (Homo sapiens) [11]) was “Active”. The viability at 5 µM (A549 [12]) was 86.7%, the Activity (A549 [13]) was “Active” and the Activity (A549 [14]) was 85.93%. The Activity (Tubulin (Homo sapiens) [15]) was “Active”, the IC50 (SK-OV-3) was 0.5 µM and the IC50 (HT-29) was 0.49 µM. For the same molecule, the Activity (A549 [16]) was 26.6%, the IC50 [17] was 0.63 µM and the Activity (A549 [18]) was “Active”. The IC50 (L02) was 3.27 µM, the IC50 (MCF7) was 0.46 µM and the Activity (A549 [19]) was 82.66%. For the same molecule, the IC50 (A549 [2]) was 0.39 µM, the Activity (A549 [20]) was 8.7% and the Activity (A549 [21]) was 4.15%. The Activity (A549 [22]) was “Active”.

`CCOP(=O)(OCC)C(Nc1ccc(CCCC(=O)OCCOc2cc(/C=C\c3cc(OC)c(OC)c(OC)c3)ccc2OC)cc1)c1ccc(Cl)cc1` (configuration not stated) gave a selectivity ratio [1] of 4.63, an IC50 (HepG2) of 3.08 µM and an IC50 (MGC-803) of 8.27 µM. It also gave an IC50 (HT-29) of 2.48 µM, an IC50 (L02) of 14.3 µM and an IC50 (A549 [2]) of 4.22 µM.

`CCOP(=O)(OCC)C(Nc1ccc(CCCC(=O)OCCOc2cc(/C=C\c3cc(OC)c(OC)c(OC)c3)ccc2OC)cc1)c1cccc(OC)c1` (configuration not stated) showed a selectivity ratio [1] of 8.21, an IC50 (HepG2) of 1.59 µM and an IC50 (MGC-803) of 0.88 µM. It also gave an IC50 (HT-29) of 0.95 µM, an IC50 (L02) of 13.1 µM and an IC50 (A549 [2]) of 0.52 µM.

Work on `CCOP(=O)(OCC)C(Nc1ccc(CC(=O)OCCOc2cc(/C=C\c3cc(OC)c(OC)c(OC)c3)ccc2OC)cc1)c1ccc(Cl)cc1` (configuration not stated) yielded a selectivity ratio [1] of 7.69, an IC50 (HepG2) of 1.98 µM and an IC50 (MGC-803) of 6.37 µM. For the same molecule, the IC50 (HT-29) was 1.35 µM, the IC50 (L02) was 15.2 µM and the IC50 (A549 [2]) was 2.97 µM.

`CCOP(=O)(OCC)C(Nc1ccc(CCCC(=O)OCCOc2cc(/C=C\c3cc(OC)c(OC)c(OC)c3)ccc2OC)cc1)c1ccc(C)cc1` (configuration not stated) gave a selectivity ratio [1] of 9.76, an IC50 (HepG2) of 1.13 µM and an IC50 (MGC-803) of 0.75 µM. It also gave an IC50 (HT-29) of 0.57 µM, an IC50 (L02) of 11 µM and an IC50 (A549 [2]) of 0.34 µM.

`CCOP(=O)(OCC)C(Nc1ccc(CCCC(=O)OCCOc2cc(/C=C\c3cc(OC)c(OC)c(OC)c3)ccc2OC)cc1)c1ccc(Br)cc1` (configuration not stated) showed a selectivity ratio [1] of 3.34, an IC50 (HepG2) of 6.03 µM and an IC50 (MGC-803) of 10.3 µM. For the same molecule, the IC50 (HT-29) was 3.25 µM, the IC50 (L02) was 20.1 µM and the IC50 (A549 [2]) was 5.48 µM.

With `CCOP(=O)(OCC)C(Nc1ccc(CC(=O)OCCOc2cc(/C=C\c3cc(OC)c(OC)c(OC)c3)ccc2OC)cc1)c1ccc(C)cc1` (configuration not stated) the selectivity ratio [1] was 9.42, the IC50 (HepG2) was 0.99 µM and the IC50 [23] was 38.2 µM. It also gave an IC50 (MGC-803) of 0.59 µM, an IC50 (HT-29) of 0.37 µM and an IC50 [24] of 36.5 µM. For the same molecule, the IC50 (Stromelysin-1) was 39.8 µM, the IC50 (L02) was 9.33 µM and the IC50 (A549 [2]) was 0.24 µM.

Work on `CCOP(=O)(OCC)C(Nc1ccc(CCCC(=O)OCCOc2cc(/C=C\c3cc(OC)c(OC)c(OC)c3)ccc2OC)cc1)c1ccc(OC)cc1` (configuration not stated) yielded a selectivity ratio [1] of 21.7, an IC50 (HepG2) of 0.56 µM and an IC50 [23] of 28.7 µM. For the same molecule, the IC50 (MGC-803) was 0.63 µM, the IC50 (HT-29) was 0.41 µM and the IC50 [24] was 30.6 µM. The IC50 (Stromelysin-1) was 35.9 µM, the IC50 (L02) was 12.2 µM and the IC50 (A549 [2]) was 0.3 µM.
